The source made the active and inactive calls. The calls are words filed in the database; no cut-off is given here.
Key:
[1] = target: T1, Acid-sensing ion channel 2 (Mus musculus) (UniProt Q925H0); experiment: Inhibition of mouse ASIC2a expressed in genetically engineered-CHO-K1 cells at 10 uM preincubated for 10 mins at pH 7.4 followed by cell stimulation with proton injection at pH 6.5 by electro-chromic fluorescence voltage sensor-based assay relative to control
T1 sequence (whole entry): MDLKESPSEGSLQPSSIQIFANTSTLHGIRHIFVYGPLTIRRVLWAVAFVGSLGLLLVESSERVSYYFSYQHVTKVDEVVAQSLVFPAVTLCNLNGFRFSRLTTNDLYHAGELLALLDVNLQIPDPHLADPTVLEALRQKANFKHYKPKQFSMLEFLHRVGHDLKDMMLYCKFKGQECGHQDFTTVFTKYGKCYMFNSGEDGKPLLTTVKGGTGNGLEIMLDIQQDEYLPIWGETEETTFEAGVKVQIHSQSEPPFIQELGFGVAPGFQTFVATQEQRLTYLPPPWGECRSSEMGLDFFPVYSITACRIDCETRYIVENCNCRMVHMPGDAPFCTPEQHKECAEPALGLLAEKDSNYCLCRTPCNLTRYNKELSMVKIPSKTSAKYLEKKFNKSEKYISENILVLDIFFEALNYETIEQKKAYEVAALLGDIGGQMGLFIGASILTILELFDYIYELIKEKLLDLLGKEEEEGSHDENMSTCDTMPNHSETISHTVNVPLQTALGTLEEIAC

Cortical neurone [2] = experiment: Neuroprotective activity in OGD/Rx-induced E16 Wistar rat Primary cortical neurons assessed as increase in cell viability incubated for 3 hrs during OGD followed by reoxygenation with compound re-addition measured after 21 hrs by MTT assay; assay type: functional, cell-based; details: time 24.0 hrs
Mus musculus [3] = experiment: Neuroprotective activity in mouse model of middle cerebral artery occlusion-induced transient brain ischemia assessed as decrease in ischemic volume at 0.6 mg/kg, ip administered thrice measured after 24 hrs (reference value: 58 +/- 2.6 %); assay type: functional; design: scale not given: the % may be the effect or the level left
[4] = target: T2, Acid-sensing ion channel 1 (Homo sapiens, UniProt P78348); experiment: Inhibition of human ASIC1a in HEK293 cells assessed as inward proton-gated current at pH 6.0 incubated with compound followed by PcTx1 addition by patch-clamp electrophysiology; assay type: cell-based
T2 sequence (P78348 whole entry): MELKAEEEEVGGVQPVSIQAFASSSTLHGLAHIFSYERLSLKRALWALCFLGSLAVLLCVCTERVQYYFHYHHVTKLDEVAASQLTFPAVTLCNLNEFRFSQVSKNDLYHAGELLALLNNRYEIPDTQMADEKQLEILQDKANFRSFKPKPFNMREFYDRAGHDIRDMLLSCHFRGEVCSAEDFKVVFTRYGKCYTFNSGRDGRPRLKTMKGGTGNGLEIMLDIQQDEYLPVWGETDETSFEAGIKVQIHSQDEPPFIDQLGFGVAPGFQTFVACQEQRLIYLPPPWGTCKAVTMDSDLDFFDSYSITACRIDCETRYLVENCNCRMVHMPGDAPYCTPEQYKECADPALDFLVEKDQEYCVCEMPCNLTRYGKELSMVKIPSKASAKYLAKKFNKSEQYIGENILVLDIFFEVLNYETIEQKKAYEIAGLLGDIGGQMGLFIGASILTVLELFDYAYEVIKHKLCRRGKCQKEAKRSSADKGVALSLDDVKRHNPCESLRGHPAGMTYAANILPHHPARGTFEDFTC

[5] = target: T3, Acid-sensing ion channel 1 (Mus musculus) (UniProt Q6NXK8); experiment: Inhibition of mouse ASIC1a expressed in genetically engineered-CHO-K1 cells at 10 uM preincubated for 10 mins at pH 7.4 followed by cell stimulation with proton injection at pH 6.5 by electro-chromic fluorescence voltage sensor-based assay relative to control
T3 sequence (whole entry): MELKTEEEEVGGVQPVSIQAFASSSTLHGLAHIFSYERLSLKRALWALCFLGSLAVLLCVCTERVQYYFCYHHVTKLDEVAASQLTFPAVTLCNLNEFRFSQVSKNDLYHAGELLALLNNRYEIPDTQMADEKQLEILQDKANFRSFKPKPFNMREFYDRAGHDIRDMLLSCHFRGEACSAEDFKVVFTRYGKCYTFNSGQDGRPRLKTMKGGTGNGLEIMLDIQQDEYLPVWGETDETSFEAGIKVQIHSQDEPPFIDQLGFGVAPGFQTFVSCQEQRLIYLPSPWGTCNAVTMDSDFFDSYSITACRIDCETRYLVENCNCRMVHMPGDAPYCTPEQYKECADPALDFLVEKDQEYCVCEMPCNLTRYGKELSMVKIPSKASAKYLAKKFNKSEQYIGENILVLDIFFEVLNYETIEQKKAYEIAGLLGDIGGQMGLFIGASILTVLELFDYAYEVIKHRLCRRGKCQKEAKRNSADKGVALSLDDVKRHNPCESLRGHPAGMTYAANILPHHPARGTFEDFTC

Cortical neurone [6] = experiment: Neuroprotective activity in OGD/Rx-induced E16 Wistar rat Primary cortical neurons assessed as increase in cell viability at 2.1 uM incubated for 3 hrs during OGD followed by reoxygenation with compound re-addition measured after 21 hrs by MTT assay; assay type: functional, cell-based; details: time 24.0 hrs
Cortical neurone [7] = experiment: Neuroprotective activity in OGD/Rx-induced E16 Wistar rat Primary cortical neurons assessed as increase in cell viability at 2.1 uM incubated for 3 hrs during OGD followed by compound removal and reoxygenation measured after 21 hrs by MTT assay; assay type: functional, cell-based
Cortical neurone [8] = experiment: Neuroprotective activity in OGD/Rx-induced E16 Wistar rat Primary cortical neurons assessed as increase in cell viability at 1.9 uM incubated for 3 hrs during OGD followed by reoxygenation with compound re-addition measured after 21 hrs by MTT assay; assay type: functional, cell-based; details: time 24.0 hrs
Cortical neurone [9] = experiment: Neuroprotective activity in OGD/Rx-induced E16 Wistar rat Primary cortical neurons assessed as increase in cell viability at 2.59 uM incubated for 3 hrs during OGD followed by reoxygenation with compound re-addition measured after 21 hrs by MTT assay; assay type: functional, cell-based
Mus musculus [10] = experiment: Neuroprotective activity in mouse model of middle cerebral artery occlusion-induced transient brain ischemia assessed as reduction in neurological deficits at 0.8 mg/kg, ip administered thrice measured after 24 hrs; assay type: functional, organism-based
Cortical neurone [11] = experiment: Neuroprotective activity in OGD/Rx-induced E16 Wistar rat Primary cortical neurons assessed as increase in cell viability at 0.38 uM incubated for 3 hrs during OGD followed by reoxygenation with compound re-addition measured after 21 hrs by MTT assay; assay type: functional, cell-based; details: time 24.0 hrs
Mus musculus [12] = experiment: Neuroprotective activity in mouse model of middle cerebral artery occlusion-induced transient brain ischemia assessed as decrease in ischemic volume at 0.8 mg/kg, ip administered thrice measured after 24 hrs (reference value: 58 +/- 2.6 %); assay type: functional; design: scale not given: the % may be the effect or the level left
Cortical neurone [13] = experiment: Neuroprotective activity in OGD/Rx-induced E16 Wistar rat Primary cortical neurons assessed as increase in cell viability at 9.5 uM incubated for 3 hrs during OGD followed by reoxygenation with compound re-addition measured after 21 hrs by MTT assay; assay type: functional, cell-based; details: time 24.0 hrs

SMILES	inhibition [1]	Activity (Cortical neurone [2])	Activity (Mus musculus [3])	IC50 [4]	inhibition [5]	Activity (Cortical neurone [6])	Activity (Cortical neurone [7])	Activity (Cortical neurone [8])	Activity (Cortical neurone [9])	Activity (Mus musculus [10])	Activity (Cortical neurone [11])	Activity (Mus musculus [12])	Activity (Cortical neurone [13])
N=C(N)N/N=C/c1ccc(-c2cc(-c3ccc(Br)cc3)n[nH]2)cc1	86.2%	Dose-Dependent Effect	44%	1990 nM	24.6%	Active	Active	–	–	–	–	–	–
COc1ccc(Cn2nc(-c3ccc(F)cc3)cc2-c2ccc(/C=N/NC(=N)N)cc2)cc1	40.3%	–	–	1990 nM	–	–	–	Active	–	–	–	–	–
N=C(N)N/N=C/c1ccc(-c2cc(-c3ccc(F)cc3)n[nH]2)cc1	83.6%	–	–	2590 nM	41.6%	–	–	–	Active	–	–	–	–
Cl.Cl.N=C(N)N/N=C\c1ccc(-c2cc(-c3ccc(/C=N\NC(=N)N)cc3)[nH]n2)cc1	61.3%	–	–	729 nM	9.09%	–	–	–	–	Active	Active	40.9%	–
N=C(N)N/N=C/c1ccc(-c2cc(-c3ccc(F)cc3)on2)cc1	95.9%	–	–	9540 nM	24.2%	–	–	–	–	–	–	–	Active

Source: ChEMBL document CHEMBL5226310, “Synthesis and Characterization of Novel Mono- and Bis-Guanyl Hydrazones as Potent and Selective ASIC1 Inhibitors Able to Reduce Brain Ischemic Insult” (J Med Chem, 2021)
